Residues, ends and D or L forms follow the SMILES beside them. No end group written: not given here. *: point of attachment. Arachidoyl = CCCCCCCCCCCCCCCCCCCC(=O)*; Stearoyl = CCCCCCCCCCCCCCCCCC(=O)*; Palmitoyl = CCCCCCCCCCCCCCCC(=O)*
Tests used:
[1] = Pharmacokinetics in male Sprague Dawley rats after intravenous and subcutaneous injection (Example 10); assay type: in vivo; details: 1 μmol net peptide/kg, rat; for exposure after administration by either dose route (in words): iv and sc
Method: The peptides were reconstituted in saline (0.9% NaCl). Three male Sprague Dawley rats were used per group. Intravenous doses were administered into a lateral tail vein at the dose of 1 μmol net peptide/kg. Subcutaneous doses were administered into the right flank of each animal, also at the dose of 1 μmol net peptide/kg. Following dosing, serial whole blood samples (ca. 0.25 mL) were collected from a lateral tail vein into K2EDTA treated containers. Following each blood sample collection, samples were placed into a cooling block at 4° C. Samples were collected prior to dosing then at 2, 5, 15 and 30 minutes then 1, 2, 4, 6 and 8 and 24 hours post dose for intravenous injection and at 15 and 30 minutes then 1, 2, 4, 6, 8 and 24 hours post dose for subcutaneous injection.
Blood samples were centrifuged at 10000×g for 2 minutes at 4° C. and resultant plasma aspirated off into clean fully, labelled tubes. Plasma samples were snap frozen following aspiration then stored at −80° C. Peptides were extracted and analyzed as described in Example 9. The limits of quantification of these methods were 0.001 nmol/mL for cyclic HBD1 (3-11) and HBD1 (3-11) and 0.003 nmol/mL for HBD1 (1-13). All values below these limits of quantification were considered as zero.

[2] = Pharmacokinetics of acylated analogs in male Sprague Dawley rats after subcutaneous injection (Example 11); assay type: in vivo; parameters: AUC(0-t): concentration or dose not given beside the values; details: sc, rat; for AUC(0-t) / Cmax / Tmax: male, Sprague Dawley, plasma; for AUC(0-t) / Cmax / Tmax / Tlast (last time point with detectable peptide): Table 24
Method: The peptides were reconstituted in saline (0.9% NaCl). Three male Sprague Dawley rats (approximately 6 weeks of age) were used per group. Subcutaneous doses were administered into the right flank of each animal […]. Following dosing, serial whole blood samples (ca. 0.3 mL) were collected from retro-orbital sinus into K2EDTA treated containers. Following each blood sample collection, samples were placed into a cooling block at 4° C. Samples were collected prior to dosing then at 15 and 30 minutes then 1, 2, 4, 6, 8 and 24 hours post dose for subcutaneous injection. Blood samples were centrifuged at 3500×rpm for 10 minutes at 4° C. and resultant plasma aspirated off into clean fully, labelled tubes. Plasma samples were snap frozen following aspiration then stored at −80° C. The peptides were extracted with acetonitrile:water (75:25, v/v) and analyzed using developed LC-MS/MS methods as described in Example 9. The limits of detection of these methods are 0.003 nmol/mL for HBD1 (1-13) with palmitic acid at the N-terminus (C16:0), 0.0008 nmol/mL for HBD1 (3-11) with palmitic acid at the N-terminus (C16:0), 0.0070 nmol/mL for HBD1 (3-11) with stearic acid at the N-terminus (C18:0), and 0.0015 nmol/mL for HBD1 (3-11) with myristic acid at the N-terminus (C14:0), HBD1 (3-11) with arachidic acid at the N-terminus (C20:0), HBD1 (3-11) with palmitic diacid at the N-terminus (C16:0-diacid), HBD1 (3-11) with palmitic acid at the C-terminus (C16:0). All values below these limits of quantification were considered as zero.

[3] = Stability of HBD1 fragments in human plasma; assay type: in vitro ADME; details: for Remaining parent peptide in human plasma 48 hours post spike / remaining at 24 h, 1 μg/mL / remaining at 48 h, 1 μg/mL / Remaining parent peptide in human plasma 24 hours post spike: spiked at 1 μg/mL, 37° C.; for stability in human plasma (in words): 24 and 48 hours incubation at 37° C.; for remaining at 24 h, 1 μg/mL / remaining at 48 h, 1 μg/mL: human, human K2EDTA plasma; for remaining at 24 h, 1 μg/mL: read-out: Remaining parent peptide in human plasma 24 hours post spike; for remaining at 48 h, 1 μg/mL: read-out: Remaining parent peptide in human plasma 48 hours post spike
Method: The peptides were spiked at 1 μg/mL (peptide backbone) into pre-warmed human K2EDTA plasma (at 37° C.) and incubated for up to 48 hours. Aliquots of plasma were extracted at specific time points (0, 24 and 48 hours post spike). Extraction was performed with acetonitrile:water (75:25, v/v) for HBD1 (1-13), HBD1 (1-13) with palmitic acid at the N-terminus (C16:0), HBD1 (3-11) with palmitic acid at the N-terminus (C16:0)) and HBD1 (3-11) with stearic acid at the N-terminus (C18:0) or with acetonitrile:water:formic acid (75:25:0.1, v/v/v) for HBD1 (3-11) and cyclic HBD1 (3-11). The peptides were analyzed using developed LC (C18 reverse phase column)—positive ion electrospray MS/MS methods specific to each peptide. The peak area at each time point was expressed as a percentage of the value obtained for the t=0 minutes time point.

[4] = system: MC-3T3 E1 clone 4 (CL4) osteoblast cells; assay: Osteocalcin expression during in vitro osteoblast differentiation, acylated and cyclic analogs (Example 7); assay type: cell-based; details: Table 18; test peptide 1 μg/L; 18-21 day interval
Method: Each acylated peptide was tested in a biologic assay measuring its ability to stimulate differentiation of osteoblast cells over a 18-21 day interval as assessed by the stimulation of osteocalcin protein synthesis. MC-3T3 E1 clone 4 (CL4) osteoblast cells were obtained from ATCC (Manassas, Va., USA). Cells were cultured in α-MEM containing 10% fetal bovine serum (FBS; Thermo Fisher Scientific, Pittsburgh, Pa., USA). After confluency, culture medium was changed to differentiation medium (DM), which contained 10% FBS plus 50 μg/mL ascorbic acid and 4 mM β-glycerol phosphate, with or without a test peptide (1 μg/L). Fresh DM, with or without test peptide, was applied every 72 hours. The cell monolayers were lysed in a modified radioimmunoprecipitation assay (RIPA) buffer. Total cellular protein in the lysates was determined using BCA (Thermo Fisher Scientific, Rockford, Ill., USA). Cell proteins are separated on SDS-PAGE gel and transferred on PVDF membrane for analysis. Osteocalcin detection was performed using anti-osteocalcin antibody at 1:200 dilution (Santa Cruz Biotechnology, Inc, Santa Cruz, Calif., USA) and visualized using enhanced chemiluminescence (Thermo Fisher Scientific, Rockford, Ill., USA).
In a separate experiment, the effect of cyclization was examined on of the HBD1 (3-11) peptide. The cyclic HBD1 (3-11) was synthetized and tested on the in vitro osteoblast differentiation assay.

[5] = male, Sprague Dawley, plasma, iv
[6] = male, Sprague Dawley, plasma, sc

Molecule: CCCCCCCCCCCCCCCC(=O)N[C@@H](Cc1c[nH]cn1)C(=O)N[C@@H](CC(C)C)C(=O)NCC(=O)N[C@@H](CC(C)C)C(=O)N[C@@H](CCC(=O)O)C(=O)N[C@@H](CCC(=O)O)C(=O)N1CCC[C@H]1C(=O)N[C@@H](CCCCN)C(=O)N[C@@H](CCCCN)C(=O)O [SEQ ID NO: 72, C16:0-HLGLEEPKK] (Palmitoyl-HLGLEEPKK-OH; C-terminus assumed)
- bioavailability ([1]; male, Sprague Dawley, plasma, subcutaneous, sc vs iv, read-out: F (bioavailability)): 35%
- AUC(0-t) [1, 5]: 4.46 µM·h
- Cmax [1, 5]: 7.89 µM
- Tmax [1, 5]: 1.98 min
- AUC(0-t) [1, 6]: 1.57 µM·h
- Cmax [1, 6]: 0.41 µM
- Tmax [1, 6]: 60 min

Molecule: CCCCCCCCCCCCCCCCCCCC(=O)N[C@@H](Cc1c[nH]cn1)C(=O)N[C@@H](CC(C)C)C(=O)NCC(=O)N[C@@H](CC(C)C)C(=O)N[C@@H](CCC(=O)O)C(=O)N[C@@H](CCC(=O)O)C(=O)N1CCC[C@H]1C(=O)N[C@@H](CCCCN)C(=O)N[C@@H](CCCCN)C(=O)O [SEQ ID NO: 74, C20:0-HLGLEEPKK] (Arachidoyl-HLGLEEPKK-OH; C-terminus assumed)
- peptide exposure compared among acylated peptides (in words) [2]: lower exposure than HBD1 (3-11) with stearic acid at the N-terminus (C18:0)

Molecule: CCCCCCCCCCCCCCCC(=O)N[C@@H](CCCCN)C(=O)N[C@@H](Cc1c[nH]cn1)C(=O)N[C@@H](Cc1c[nH]cn1)C(=O)N[C@@H](CC(C)C)C(=O)NCC(=O)N[C@@H](CC(C)C)C(=O)N[C@@H](CCC(=O)O)C(=O)N[C@@H](CCC(=O)O)C(=O)N1CCC[C@H]1C(=O)N[C@@H](CCCCN)C(=O)N[C@@H](CCCCN)C(=O)N[C@@H](CC(C)C)C(=O)N[C@@H](CCCNC(=N)N)C(=O)O [SEQ ID NO: 78, C16:0-KHHLGLEEPKKLR] (Palmitoyl-KHHLGLEEPKKLR-OH; C-terminus assumed)
- Remaining parent peptide in human plasma 48 hours post spike [3]: 52%

Molecule: CCCCCCCCCCCCCCCC(=O)N[C@@H](Cc1c[nH]cn1)C(=O)N[C@@H](Cc1c[nH]cn1)C(=O)N[C@@H](CC(C)C)C(=O)NCC(=O)N[C@@H](CC(C)C)C(=O)N[C@@H](CCC(=O)O)C(=O)N[C@@H](CCC(=O)O)C(=O)N1CCC[C@H]1C(=O)N[C@@H](CCCCN)C(=O)N[C@@H](CCCCN)C(=O)O [compound 68] (Palmitoyl-HHLGLEEPKK-OH; C-terminus assumed)
- Fold increase vs DM ± SE [4]: 2.52 ± 0.52 fold

Molecule: CCCCCCCCCCCCCCCCCC(=O)N[C@@H](Cc1c[nH]cn1)C(=O)N[C@@H](Cc1c[nH]cn1)C(=O)N[C@@H](CC(C)C)C(=O)NCC(=O)N[C@@H](CC(C)C)C(=O)N[C@@H](CCC(=O)O)C(=O)N[C@@H](CCC(=O)O)C(=O)N1CCC[C@H]1C(=O)N[C@@H](CCCCN)C(=O)N[C@@H](CCCCN)C(=O)O [compound 69] (Stearoyl-HHLGLEEPKK-OH; C-terminus assumed)
- Fold increase vs DM ± SE [4]: 2.48 ± 0.27 fold

Molecule: CCCCCCCCCCCCCCCCCCCC(=O)N[C@@H](Cc1c[nH]cn1)C(=O)N[C@@H](Cc1c[nH]cn1)C(=O)N[C@@H](CC(C)C)C(=O)NCC(=O)N[C@@H](CC(C)C)C(=O)N[C@@H](CCC(=O)O)C(=O)N[C@@H](CCC(=O)O)C(=O)N1CCC[C@H]1C(=O)N[C@@H](CCCCN)C(=O)N[C@@H](CCCCN)C(=O)O [compound 70] (Arachidoyl-HHLGLEEPKK-OH; C-terminus assumed)
- Fold increase vs DM ± SE [4]: 2.11 ± 0.11 fold

Molecule: CCCCCCCCCCCCCCCC(=O)N[C@@H](Cc1c[nH]cn1)C(=O)N[C@@H](CC(C)C)C(=O)NCC(=O)N[C@@H](CC(C)C)C(=O)N[C@@H](CCC(=O)O)C(=O)N[C@@H](CCC(=O)O)C(=O)N1CCC[C@H]1C(=O)N[C@@H](CCCCN)C(=O)N[C@@H](CCCCN)C(=O)O [compound 72] (Palmitoyl-HLGLEEPKK-OH)
- AUC(0-t) [2]: 1.34 µM·h
- Cmax [2]: 350 nM
- Tmax [2]: 1 h
- Tlast (last time point with detectable peptide) [2]: 8 h
- stability in human plasma (in words) [3]: similar
- remaining at 24 h, 1 μg/mL [3]: 94%
- remaining at 48 h, 1 μg/mL [3]: 87%

Molecule: CC(C)C[C@@H]1NC(=O)CNC(=O)[C@H](CC(C)C)NC(=O)[C@H](Cc2c[nH]cn2)NC(=O)[C@H](CCCCN)NC(=O)[C@H](CCCCN)NC(=O)[C@@H]2CCCN2C(=O)[C@H](CCC(=O)O)NC(=O)[C@H](CCC(=O)O)NC1=O [compound 77] (cyclo(EEPKKHLGL))
- stability in human plasma (in words) [3]: similar
- remaining at 24 h, 1 μg/mL [3]: 98%
- remaining at 48 h, 1 μg/mL [3]: 95%

Molecule: CCCCCCCCCCCCCCCC(=O)N[C@@H](CCCCN)C(=O)N[C@@H](Cc1c[nH]cn1)C(=O)N[C@@H](Cc1c[nH]cn1)C(=O)N[C@@H](CC(C)C)C(=O)NCC(=O)N[C@@H](CC(C)C)C(=O)N[C@@H](CCC(=O)O)C(=O)N[C@@H](CCC(=O)O)C(=O)N1CCC[C@H]1C(=O)N[C@@H](CCCCN)C(=O)N[C@@H](CCCCN)C(=O)N[C@@H](CC(C)C)C(=O)N[C@@H](CCCNC(=N)N)C(=O)O [compound 78] (Palmitoyl-KHHLGLEEPKKLR-OH)
- AUC(0-t) [2]: 0.01 µM·h
- Cmax [2]: 10 nM
- Tmax [2]: 6 h
- Tlast (last time point with detectable peptide) [2]: 8 h
- remaining at 24 h, 1 μg/mL [3]: 58%
- remaining at 48 h, 1 μg/mL [3]: 52%

Molecule: HLGLEEPKK [SEQ ID NO: 10, HLGLEEPKK]
- exposure after administration by either dose route (in words) [1]: no quantifiable exposure
- stability in human plasma (in words) [3]: very stable
- Remaining parent peptide in human plasma 24 hours post spike [3]: 92%
- Remaining parent peptide in human plasma 48 hours post spike [3]: 87%

Molecule: HLGLEEPKK [compound 10]
- remaining at 24 h, 1 μg/mL [3]: 92%
- remaining at 48 h, 1 μg/mL [3]: 87%

Molecule: KHHLGLEEPKKLR [SEQ ID NO: 1, KHHLGLEEPKKLR, reference compound]
- exposure after administration by either dose route (in words) [1]: no quantifiable exposure
- stability in human plasma (in words) [3]: markedly degraded
- Remaining parent peptide in human plasma 24 hours post spike [3]: 29%
- Remaining parent peptide in human plasma 48 hours post spike [3]: 18%

Molecule: KHHLGLEEPKKLR [compound 1]
- remaining at 24 h, 1 μg/mL [3]: 29%
- remaining at 48 h, 1 μg/mL [3]: 18%

From patent US20190352358A1, “COMPOUNDS, COMPOSITIONS AND USES THEREOF FOR IMPROVEMENT OF BONE DISORDERS” (ALIZE PHARMA III SAS, priority 2017, published 2019)
